{"source": "patent US7395112B2", "about": "“Method and apparatus for treating tumors using low strength electric fields” (priority 2002, dated 2008)", "key": {"[1]": {"test_system": "DA3 mammary adenocarcinoma", "experiment": "LEFCT-EC in mice bearing DA3 mammary adenocarcinoma", "type": "in vivo, BALB/c mice", "protocol": "Animals: BALB/c female mice between the ages of 8 to 12 weeks obtained from the breeding colony of Tel-Aviv University, Israel were used in vivo tumor therapy experiments. Animal care and experimentation was carried out in accordance with Tel-Aviv University guidelines.\nTumor cell line: The highly metastatic, poorly immunogenic mammary adenocarcinoma cell line DA3 (Lopez D M. et al., 1981. J Natl Cancer Inst. 66:191) was used to generate mammary carcinoma tumors in mice. Cells were grown in DMEM supplemented with 100 U/ml penicillin, 100 μg/ml streptomycin, 4 mM glutamine, 1 mM sodium pyruvate, 1% non-essential amino acids and 10% heat-inactivated fetal calf serum (FCS), and cultured at 37° C. in a humidified incubator in an atmosphere of 7% carbon dioxide and 93% air. Tumors of this cell line grown to 1 cm in diameter produce metastatic cells, mainly in the lungs.\nReagents: Taxol (Mead Johnson Oncology Products, A Bristol-Myers Squibb, USA), obtained as a sterile nonpyrogenic solution containing 6 mg/ml paclitaxel, 527 mg/ml of purified Cremophor EL (polyoxyethylated castor oil) and 49.7% (v/v) dehydrated ethanol; and bleomycin (MegaPharm, Israel) were the anti cancer drugs used.\nLow-strength electric field enhanced cancer chemotherapy protocol: Mice were subjected to a single treatment of LEF-chemotherapy, once primary tumors reached 5 mm in diameter (about 60-70 mm^3) (11-17 days following subcutaneous tumor cell inoculation). Up to 100 μl of chemotherapeutic agents was injected into the tumor loci. The exposure to electric field was carried out as described above in Example 2 of the Examples section.\nEffect of LEFCT-EC using bleomycin or taxol on the survival of DA3 mammary adenocarcinoma bearing nice: BALB/c mice bearing DA3 mammary adenocarcinoma were treated by LEF-chemotherapy with intratumoral taxol (20 mg/kg) (FIG. 19) or bleomycin (30 U/kg) (FIG. 20) administration and their survival rate was compared with that of mice treated only with LEF or chemotherapy."}, "[2]": {"test_system": "DA3 mammary adenocarcinoma", "experiment": "Winn assay: DA3 cells co-inoculated with splenocytes of cured mice", "type": "in vivo, BALB/c mice", "details": "10^5 DA3 cells + 10^7 splenocytes of mice cured via LEFCT-EC with taxol"}, "[3]": {"test_system": "B16-F10.9 melanoma", "experiment": "Rechallenge with B16-F10.9 cells of mice cured by LEFCT-EC", "type": "in vivo, C57BL/6 mice", "excerpt": "FIG. 17 is a data plot depicting the cumulative survival of mice previously bearing B16-F10.9 melanoma and cured by LEFCT-EC with cisplatin or taxol following challenge with B16-F10.9 melanoma cells. Mice cured by LEF-chemotherapy that survived for 120-180 days after initial tumor inoculation, were challenged with 2×10^5 B16-F10.9 cells subcutaneously.\nEffect of curative LEFCT-EC treatment on generation of anti B16-F10.9 tumor resistance: The resistance of mice cured of B16-F10.9 melanoma by LEF-chemotherapy was analyzed by challenging such cured mice with a tumorigenic dose of B16-F 10.9 melanoma cells."}, "[4]": {"test_system": "B16-F10.9 melanoma", "experiment": "LEFCT-EC in mice bearing subcutaneous B16-F10.9 melanoma", "type": "in vivo, C57BL/6 mice", "details": "for Tumor size (mean ± standard error): 7 days after treatment", "protocol": "Animals: C57BL/6 male mice were obtained from the breeding colony of Tel-Aviv University, Israel. Mice were used at 8-12 weeks of age. Animal care and experimentation was carried out in accordance with Tel-Aviv University guidelines.\nMelanoma tumor cell line: The highly metastatic, poorly immunogenic B16-F10.9 (F10.9) subclone of the B16 melanoma cell line was used to generate melanoma tumors in mice (Eisenbach L. et al., 1984. Int J Cancer 34:567). Cells were maintained in DMEM supplemented with 100 U/ml penicillin, 100 μg/ml streptomycin, 4 mM glutamine, 1 mM sodium pyruvate, 1% non-essential amino acids and 10% heat-inactivated fetal calf serum (FCS); and were cultured at 37° C. in a humidified incubator in an atmosphere of 7% carbon dioxide and 93% air.\nTumor generation protocol: F10.9 tumors were induced in C57BL/6 mice by subcutaneous injection of 2×10^5 F10.9 cells. Mice were subjected to experimental treatments once tumors reached 5 mm in diameter (about 60-70 mm^3). Chemotherapeutic drugs: The following chemotherapeutic drugs used were: cis-platinum (II) diamminedichloride (cisplatin; #P-4394, Sigma, Israel), dissolved in PBS for injections; Taxol (Mead Johnson Oncology Products, A Bristol-Myers Squibb, USA), obtained as a sterile nonpyrogenic solution containing 6 mg/ml paclitaxel, 527 mg/ml of purified Cremophor EL (polyoxyethylated castor oil) and 5-FU (Abic, Israel).\nLow-strength electric field enhanced cancer therapy protocol: Mice were subjected to a single treatment of LEFCT-EC, once tumors reached 5 mm in diameter (11-17 days following tumor cell inoculation). Volumes of up to 100 μl of chemotherapeutic agents were injected into tumor loci, and exposures to electric fields were carried out 3-4 min following intratumoral injection of chemotherapeutic agents. To expose tumors to electric fields, stainless steel electrode needles (Karlsbader insect pins No 0. BioQuip Products, USA) soldered at their brassy ends with thin isolated copper wires were used. Electrodes were inserted to a depth of about 7 mm percutaneously into and in the immediate vicinity of the tumor; one cathode needle in the center of the tumor and three peripheral anodes, at a distance of about 5 mm from the cathode. The needles were connected to an electric pulse generator (Grass S48 Stimulator, USA). The field strength applied was about 40 V/cm; the repetition frequency, 500 Hz; and the pulse width, 180 μs. All mice were anesthetized prior to LEF treatment.\nStatistical analysis: Statistical analysis of survival times (Kaplan-Meir test), survival comparisons between groups (Mantel-Cox test) and tumor volume differences between groups (Kolmogorov-Smirnov test) were performed using StatSoft Statistica statistical software. The 10-15% mortality rate in the 5 days following LEF or LEF-chemotherapy was considered as treatment-caused, therefore such cases of mortality were excluded.\nTumor volume determination: performed as described above in Example 1 of the Examples section."}, "[5]": {"test_system": "B16-F10.9 melanoma", "experiment": "Surgery with taxol versus LEFCT-EC with taxol in B16-F10.9 melanoma", "type": "in vivo, C57BL/6 mice", "protocol": "Comparison of surgery and LEFCT-EC: To compare the efficacy of LEFCT-EC to that of conventional surgery and chemotherapy treatments, C57BL/6 male mice (8-12 weeks old) were injected with 10^5 B16-F10.9 cells subcutaneously. Once the tumors reached 5 mm in diameter (11-17 days following inoculation), they were surgically removed. One experimental group received a single dose of taxol (20 mg/kg) subcutaneously in close proximity to the site of the operation one day following tumorectomy."}, "[6]": {"test_system": "DA3 mammary adenocarcinoma", "experiment": "Rechallenge with DA3 cells of mice cured by LEFCT-EC with taxol", "type": "in vivo, BALB/c mice", "details": "challenged with 10^5 DA3 cells", "protocol": "Effect of curative LEFCT-EC treatment with taxol on generation of anti DA3 tumor resistance: The resistance of mice previously cured of DA3 mammary carcinoma via LEFCT-EC treatment with taxol to tumor growth following challenge by inoculation with 10^5 DA3 cells 120-180 days following initial tumor inoculation was analyzed. […] The MSTs of first-time inoculated normal mice and challenged mice were 38.1 and 46.7 days, respectively. Thus, curative treatment of DA3 tumors via LEFCT-EC treatment with taxol has the capacity to induce significant protection against growth of such a tumor in cured mice challenged with a tumorigenic dose thereof."}, "[7]": {"details": "chemotherapy alone, intratumoral, no LEF"}}, "data": [{"smiles": "CC(=O)O[C@H]1C(=O)[C@@]2(C)[C@H]([C@H](OC(=O)c3ccccc3)[C@]3(O)C[C@H](OC(=O)[C@H](O)[C@@H](NC(=O)c4ccccc4)c4ccccc4)C(C)=C1C3(C)C)[C@]1(OC(C)=O)CO[C@@H]1C[C@@H]2O", "note": "[taxol, paclitaxel]", "values": [{"measurement": "survival time, Mean", "setting": "[1]; LEF-chemotherapy with the drug", "value": 73.8}, {"measurement": "survival time, Median", "setting": "[1]; LEF-chemotherapy with the drug", "value": 54.5}, {"measurement": "cure rate", "setting": "[1]; LEF-chemotherapy, intratumoral taxol 20 mg/kg or bleomycin 30 U/kg, 180 days after tumor inoculation", "value": 17, "unit": "%"}, {"measurement": "survival time, Mean", "setting": "[1]; drug alone, intratumoral", "value": 43.9}, {"measurement": "survival time, Median", "setting": "[1]; drug alone, intratumoral", "value": 48}, {"measurement": "Mean survival time", "setting": "[2]", "value": 39, "unit": "days"}, {"measurement": "Tumor size", "setting": "[2]; 14 days after inoculation", "value": 143, "unit": "µL"}, {"measurement": "MST of challenged mice", "setting": "[3]; mice cured by LEFCT-EC with the drug, challenged with 2×10^5 B16-F10.9 cells", "value": 73.2, "unit": "days"}, {"measurement": "challenged mice that did not develop tumor", "setting": "[3]; mice previously treated by LEFCT-EC with taxol", "value": "about 23.5%"}, {"measurement": "Tumor size (mean ± standard error)", "setting": "[4]; LEF-CT (drug + LEF), cisplatin 4 mg/kg, bleomycin 8 U/kg, 5-FU 150 mg/kg, taxol 20 mg/kg", "value": "71 ± 25", "unit": "mm^3"}, {"measurement": "mean survival time (MST)", "setting": "[4]; LEF-chemotherapy: intratumoral drug + LEF about 40 V/cm 12 min, 120 days (cisplatin) or 180 days (taxol, bleomycin) after inoculation", "value": 83.5, "unit": "days"}, {"measurement": "cure rate / animals alive and free of visible tumor", "setting": "[4]; LEF-chemotherapy, 180 days after tumor inoculation", "value": 26, "unit": "%"}, {"measurement": "effect of drug alone on survival", "setting": "[4]; [7]", "value": "no effect"}, {"measurement": "mean survival time (MST)", "setting": "[4]; [7]", "value": 36.7, "unit": "days"}, {"measurement": "Tumor size (mean ± standard error)", "setting": "[4]; intratumoral drug injection alone, same doses", "value": "927 ± 177", "unit": "mm^3"}, {"measurement": "LEFCT-EC treated mice that died two months and later after treatment with pulmonary metastatic foci, free of primary tumor", "setting": "[4]; pooled statement for cisplatin, taxol or bleomycin", "value": "About 10%"}, {"measurement": "cure rate", "setting": "[5]; LEF-chemotherapy with taxol", "value": 26, "unit": "%"}, {"measurement": "survival extension", "setting": "[5]; LEF-chemotherapy with taxol", "value": 84, "unit": "days"}, {"measurement": "MST", "setting": "[5]; surgery + taxol 20 mg/kg subcutaneously", "value": 55, "unit": "days"}, {"measurement": "cure rate", "setting": "[5]; surgery + taxol 20 mg/kg subcutaneously one day after tumorectomy", "value": 13, "unit": "%"}, {"measurement": "MST of challenged mice", "setting": "[6]", "value": 46.7, "unit": "days"}]}]}
